# Measured values: US20250289827A1, “MORPHIC FORMS OF A MUTANT BRAF DEGRADER AND METHODS OF MANUFACTURE THEREOF” (C4 THERAPEUTICS, INC., priority 2022, published 2025)
# Key:
# [1] = Equilibration under a temperature cycle (XRPD); type: physicochemical
# Procedure: The equilibration was executed with a stirring bar on a magnetic stirring plate at a rate of 300 rpm. The obtained suspensions were filtered through a 0.45 µm nylon membrane filter by centrifugation at 14,000 rpm. Solid parts (wet cakes) were investigated by XRPD.
# ERK phosphorylation = experiment: Inhibition of ERK phosphorylation in A375 cells; type: cell-based; details: Homo sapiens, A-375, 24 hr
# [2] = Plasma and brain pharmacokinetics in A375-luciferase intracranial model; design: species or system BALB/c nude mice; details: mouse, in vivo
# Procedure: To determine the level of CNS and plasma exposure of Compound 1 compared to encorafenib, a separate pharmacokinetics/pharmacodynamics (PK/PD) study was conducted. Mice were inoculated with luciferase tagged A375 cells as stated above. The tumors were left to establish and expand for 14 days before the study. […] Samples from 3 mice per treatment group were collected at 1, 12, 24, and 48 hours. To test the plasma samples, the mice were anesthetized, and blood was collected into a tube with EDTA-K2, centrifuged, transferred to a fresh tube, and stored frozen. Following blood collection, the mice were perfused for fifteen minutes, decapitated, and the brain was collected and frozen. The harvested plasma and brain were processed for pharmacokinetics analysis by LC/MS/MS with a concentration range of 1-1,000 ng/mL and pharmacodynamics analysis by Western Blot. The concentrations of Compound 1 and encorafenib found in the plasma is shown in FIG. 42, and the concentration found in the brain is shown in FIG. 43.
# [3] = Acetone, temperature cycle 5° C. to 40° C.
# [4] = Acetonitrile, temperature cycle 5° C. to 40° C.
# [5] = DMF, temperature cycle 5° C. to 40° C.
# [6] = Ethyl acetate, temperature cycle 5° C. to 40° C.
# [7] = Isopropanol, temperature cycle 5° C. to 40° C.
# [8] = Isopropyl acetate, temperature cycle 5° C. to 40° C.
# [9] = Methanol, temperature cycle 5° C. to 40° C.
# [10] = THF/heptane (v:v = 1:1), temperature cycle 5° C. to 40° C.
# [11] = Toluene, temperature cycle 5° C. to 40° C.
# [12] = temperature cycle, Acetone/water (v:v = 86:14) a.w. = 0.6
# [13] = temperature cycle, Acetonitrile/water (v:v = 96:4) a.w. = 0.65
# [14] = temperature cycle, DCM/methanol (v:v = 1:1)
# [15] = temperature cycle, DMF/water (v:v = 30:70) a.w. = 0.9
# [16] = temperature cycle, DMF/water (v:v = 73:27) a.w. = 0.6
# [17] = temperature cycle, DMSO/water (v:v = 23:77) a.w. = 0.9
# [18] = temperature cycle, DMSO/water (v:v = 57:43) a.w. = 0.6
# [19] = temperature cycle, Methanol/water (v:v = 69:31) a.w. = 0.6
# [20] = temperature cycle, THF/water (v:v = 82:18) a.w. = 0.9
# [21] = temperature cycle, THF/water (v:v = 92:8) a.w. = 0.6
structure (smiles),measurement,setting,value
CCN(C)S(=O)(=O)Nc1ccc(F)c(Oc2ccc3ncn([C@H]4COC5(CCN(C(=O)CC6(O)CCN(c7cc8c(cc7F)c(N7CCC(=O)NC7=O)nn8C)CC6)CC5)C4)c(=O)c3c2)c1C#N [Compound 1 Form A],Comments,"[1]; 1,4-Dioxane/heptane (v:v = 1:1), temperature cycle 5° C. to 40° C.",Sticky material
same,XRPD (solid form after equilibration),"[1]; 2-MeTHF, temperature cycle 5° C. to 40° C., about 20 cycles",Form C (about 20
same,Comments,"[1]; 2-MeTHF, temperature cycle 5° C. to 40° C., after about 8 more cycles",Form C converted
same,Comments,[1]; [3],Low crystallinity
same,XRPD (solid form after equilibration),[1]; [3],Form B
same,Comments (crystallinity),[1]; [4],Medium
same,XRPD (solid form after equilibration),[1]; [4],Form B
same,Comments,"[1]; DCM/heptane (v:v = 1:1), temperature cycle 5° C. to 40° C.",Sticky material
same,Comments,[1]; [5],Clear solution
same,Comments: concentration of clear solution,[1]; [5],(About 500 mg/mL)
same,XRPD (solid form after equilibration),"[1]; Ethanol, temperature cycle 5° C. to 40° C.",Almost amorphous
same,Comments,[1]; [6],Low crystallinity
same,XRPD (solid form after equilibration),[1]; [6],Form B
same,Comments,[1]; [7],Low crystallinity
same,XRPD (solid form after equilibration),[1]; [7],Form A
same,Comments,[1]; [8],Low crystallinity
same,XRPD (solid form after equilibration),[1]; [8],Form A
same,XRPD (solid form after equilibration),"[1]; MTBE, temperature cycle 5° C. to 40° C.",Almost amorphous
same,Comments,[1]; [9],Low crystallinity
same,XRPD (solid form after equilibration),[1]; [9],Form B
same,XRPD (solid form after equilibration),"[1]; Methyl ethyl ketone, temperature cycle 5° C. to 40° C.",Almost amorphous
same,Comments,[1]; [10],Low crystallinity
same,XRPD (solid form after equilibration),[1]; [10],Form B
same,Comments,[1]; [11],Low crystallinity
same,XRPD (solid form after equilibration),[1]; [11],Form A
same,Comments,"[1]; temperature cycle, Acetone/water (v:v = 36:64) a.w. = 0.9",Sticky material
same,Comments,[1]; [12],Clear solution
same,Comments: concentration of clear solution,[1]; [12],(About 500 mg/mL)
same,Comments,"[1]; temperature cycle, Acetonitrile/water (v:v = 42:58) a.w. = 0.9",Sticky material
same,Comments,[1]; [13],Medium crystallinity
same,XRPD,[1]; [13],Form B**
same,Comments,[1]; [14],Clear solution
same,Comments: concentration of clear solution,[1]; [14],(About 500 mg/mL)
same,Comments,[1]; [15],Low crystallinity
same,XRPD,[1]; [15],Form B
same,Comments,[1]; [16],Medium crystallinity
same,XRPD,[1]; [16],Form B
same,Comments,[1]; [17],Low crystallinity
same,XRPD,[1]; [17],Form A
same,Comments,[1]; [18],Low crystallinity
same,XRPD,[1]; [18],Form A
same,Comments,[1]; [19],Low crystallinity
same,XRPD,[1]; [19],Form B
same,Comments,[1]; [20],Clear solution
same,Comments: concentration of clear solution,[1]; [20],(About 500 mg/mL)
same,Comments,[1]; [21],Clear solution
same,Comments: concentration of clear solution,[1]; [21],(About 500 mg/mL)
"CCN(C)S(=O)(=O)Nc1ccc(F)c(Oc2ccc3ncn([C@H]4COC5(CCN(C(=O)CC6(O)CCN(c7cc8c(cc7F)c(N7CCC(=O)NC7=O)nn8C)CC6)CC5)C4)c(=O)c3c2)c1C#N [Compound 1, (3R)-3-[6-[2-cyano-3-[[ethyl(methyl)sulfamoyl]amino]-6-fluorophenoxy]-4-oxoquinazolin-3-yl]-8-[2-[1-[3-(2,4-dioxo-1,3-diazinan-1-yl)-5-fluoro-1-methylindazol-6-yl]-4-hydroxypiperidin-4-yl]acetyl]-1-oxa-8-azaspiro[4.5]decane]",IC50,ERK phosphorylation,11 nM
same,Blood brain barrier penetration,[2],high level of blood brain barrier penetration
